Patent publication US8841285B2, “Potent immunosuppressive agents, derivatives and uses” (priority 2002, dated 2014)
Read-outs that look alike come from different tables or passages of the source.

Legend:
[1] = system: EMCV IRES mediated initiation; assay: in vitro translation in RRL, EMCV IRES cistron; format: biochemical, rabbit; conditions: EMCV IRES bicistronic reporter
Protocol: (§1) In vitro Translation and Transcription. pSP/(CAG)33/FF/HCV/Ren·pA51 and pKS/FF/EMC/Ren were linearized by BamHI, then purified by phenol:chloroform extraction and ethanol precipitation, and dissolved in water. pSP/(CAG)33/FF/HCV/Ren·A51 and pKS/FF/EMC/Ren were individually transcribed using a large scale RNA production system in the presence of m7Gppp cap analog followed by incubation with DNase as described by the manufacturer. Resulting RNA was purified using a kit as described by the manufacturer. Translation was performed using a rabbit reticulocyte lysate system as per instructions. Briefly, 200 ng of purified RNA was combined in a 20 μl reaction containing 10 μl RRL, 0.2 μl each of minus Met and minus Leu amino acid mixtures, 70 mM KCl, 2 mM DTT, 1× translation buffer, and 10 units of RNasin. Compounds or DMSO were added to a final DMSO concentration of 2%. Reactions were incubated at 30° C. for 1.5 h, then 5 μl of the reaction mixture was assayed for luciferase activity as per instructions of luciferas reporter assay system.

[2] = system: HCV IRES-mediated translation; assay: in vitro translation in RRL, HCV IRES cistron; format: biochemical, rabbit; conditions: 100 nM
Protocol: as §1

skin graft = conditions: cited from earlier work
HeLa cells = format: cell-based
[3] = system: mixed lymphocyte reaction; conditions: read-out: IC50 in MLR (mixed lymphocyte reaction) assay; cited from earlier work
293T cells = assay: cellular polyribosome profiles; format: cell-based; conditions: 30 min treatment
Protocol: Cellular polyribosome profiles. 293T cells were treated as indicated for 30 min. Cells were washed twice with ice-cold PBS and pipetted for 5 min in 500 μl of chilled TMK100 buffer (20 mM Tris-HCl pH 7.4, 5 mM MgCl2 100 mM KCl, 2 mM DTT, 1% Triton X-100 and 100 U/ml RNAsin in DEPC water). After clearing at 10,000×g (10 min) at 4° C., the supernatant (S10) was layered onto 11 ml, 15-45% linear sucrose gradient containing 20 mM HEPES pH 7.4, 100 mM KCl, 5 mM MgCl2 and 2 mM DTT. Ultracentrifugation at 40,000 rpm for 1.5 h at 4° C. was performed in a suitable rotor. Fractions were collected from the top of the gradient by injection of Flurinert FC-40 from bottom of centrifuge tube. Gradient profiles were monitored at 254 nm. For immunoblotting, 7 mg of total protein were processed as described above, followed by collection of 500 μl fractions were collected from the top. 100 μl aliquots of each were boiled in SDS sample buffer, followed by SDS-PAGE and immunoblotting.

MCF-7 cells = assay: cell proliferation assay, MCF-7 cells; format: cell-based; conditions: MCF-7 cells (FIG. 13)
Protocol: Cell Proliferation Assay. 1×10^5 of indicated cells in each well of a 96-well plate were treated with indicated compounds for 24 h followed by addition of 0.11 μCi of [^3H]-thymidine (6.7 Ci/mmol) per well for 6 h, followed by harvesting to GF/C filtermats using a cell harvester. Filtermats were air-dried and scintillation counted. IC50s were determined from quadruplicate data readings and curve-fitting analysis.

eIF4AI = molecular target: T1, eIF4AI (Homo sapiens, UniProt P60842); assay: ATP-dependent RNA helicase activity of 6XHis-eIF4AI; format: biochemical
T1 construct: The entire ORF of human eIF4AI was ligated in-frame into the BamHI and HindIII sites of the pET-28a expression vector; 6XHis (N); made in house; host or cells: E. coli BL21(DE3)
Protocol: Recombinant proteins. The entire ORF of human eIF4AI was ligated in-frame into the BamHI and HindIII sites of the pET-28a expression vector after PCR amplification from HeLa cells. Protein was produced in BL21(DE3) E. coli cultured in LB medium by induction with 1 mM IPTG for 6 h at 37° C. Cells were lysed by sonication and protein was purified using Ni-NTA resin as described by the manufacturer. For pET(His6-eIF4B), induction conditions were for 72 h at 16° C. Purification included a 1 ml Heparin column with a linear KCl gradient (50-500 mM).
ATPase and Helicase. ATPase activity was performed as described (Korneeva et al., 2005) with minor modifications. Reactions contained 2.5% DMSO, 6XHis-eIF4AI concentration was 0.56 μM, and reaction time was 10 min at 37° C. in buffer: 20 mM Tris-HCl, pH 7.5, 0.5 mM MgCl2, 100 mM KCl, 2 mM DTT, 0.1% (v/v) Tween 20, 10% (v/v) glycerol, 1 mg/ml BSA, and reactions were supplemented with 3-5 μCi of [γ-^32P]-ATP (6000 Ci/mmol). Saturating poly(U) concentrations were 1239 μM (nucleotides/20). Released phosphate was visualized on 15% native TBE polyacrylamide gels followed by autoradiography of wet gels (30 min exposure). Film was aligned with gels and spots were excised and ^32P levels were quantified by scintillation counting. Km and Vmax were determined by curve fitting. […]

T1 sequence (P60842 whole entry): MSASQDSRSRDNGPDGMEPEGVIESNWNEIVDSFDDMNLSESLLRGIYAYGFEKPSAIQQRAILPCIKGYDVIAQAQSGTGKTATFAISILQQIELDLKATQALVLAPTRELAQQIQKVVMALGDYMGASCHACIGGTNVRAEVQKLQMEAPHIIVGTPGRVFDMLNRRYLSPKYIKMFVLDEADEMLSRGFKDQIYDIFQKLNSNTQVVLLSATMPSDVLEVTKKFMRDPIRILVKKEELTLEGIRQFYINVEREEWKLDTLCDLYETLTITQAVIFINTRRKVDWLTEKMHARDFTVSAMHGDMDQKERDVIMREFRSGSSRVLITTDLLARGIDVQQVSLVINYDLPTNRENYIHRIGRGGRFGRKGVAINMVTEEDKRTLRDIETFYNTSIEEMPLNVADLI

| Structure (SMILES) | IC50 [1] | inhibition of HCV IRES-mediated (eIF4A-independent) translation [2] | activity in skin graft rejection assay (skin graft; all doses) | toxicity (skin graft; at high doses) | survival period of the skin graft (skin graft; mouse skin graft rejection) | toxicity (skin graft; other dose levels) | stress granule formation (HeLa cells) | IC50 [3] | effect on polysome profile (293T cells) | reversibility of antiproliferative effect (MCF-7 cells) | effect on helicase activity of eIF4A and 4B (eIF4AI; in the presence of 6XHis-4B) | effect on ATP-dependent RNA helicase activity of eIF4AI (eIF4AI; with ATP) |
| --- | --- | --- | --- | --- | --- | --- | --- | --- | --- | --- | --- | --- |
| CC(/C=C/C(C)=C/[C@@H]1Cc2nc(cs2)[C@@H](C)C[C@@H](N)CC(=O)O[C@@H](C)C/C(C)=C/C=C\C(=O)O1)=C\CN(C)C [Pat A (1), Pateamine A] | ~54 nM | not inhibited | All doses were active | 17% | 15 days | no toxicity | capable of inducing stress granule formation | 2.6 nM | depletion of polysomes | irreversible |  |  |
| CC(/C=C/C(C)=C/[C@@H]1Cc2nc(cs2)CCCCC(=O)O[C@@H](C)C/C(C)=C/C=C\C(=O)O1)=C\CN(C)C [compound 3, desmethyl, desamino-pateamine A] |  |  |  |  |  |  |  |  |  |  | further stimulated | dramatically increased |
